In patent US20120010177A1, “MicroRNA Modulators and Method for Identifying And Using The Same” (The Wistar Institute / North Carolina State University, priority 2008, published 2012):

These molecules were tested on miR-21 (assay: High throughput primary miR-21 FLuc reporter assay (concentration-response)). Conditions: HeLa Luc-miR-21 reporter, 48-hour incubation; read-out: AC50.
Type: cell-based, human
Experimental: Primary miR-21 Assay. The primary miR-21 FLuc reporter assay is carried out with HeLa cells expressing the Luc-miR-21 reporter using a 48-hour incubation time. Active compounds that increase the luciferase response are identified based upon inhibition of miR-21.
SAR. The concentration-response data for the entire high throughput screen is plotted and modeled by a four parameter logistic fit and SAR analysis is performed according to conventional approaches (Iglese, et al. (2006) Proc. Natl. Acad. Sci. USA […]:11473-8). In brief, Class 1.1 and 1.2 are full curves containing upper and lower asymptotes with efficacy ≧80% and <80%, respectively. Class 2.1 and 2.2 are incomplete curves having only one asymptote with efficacy ≧80% and <80%, respectively. Class 3 curves show activity at only the highest concentration or are poorly fit. […] For SAR analysis, compounds associated with Class 1 and 2.1 curves are clustered using LEADSCOPE® fingerprints. […] Compounds sharing a common scaffold form a series. Candidate series and singletons are chosen for follow up studies. For each lead or series, an appropriate library design method (e.g., point substitution library or matrix library) is selected. Typically, precursors are synthesized and a library of 15-25 compounds is produced for analysis in the above-described assays.

Going from `Cc1ccc(C)c(-n2nnc(-c3nc(-c4ccc(Cl)cc4)no3)c2N)c1` [Compound 55] to `COC(=O)/C(=C/c1cccc([N+](=O)[O-])c1)NC(=O)c1ccc(OC)cc1` [Compound 89], the AC50 rises from 1.85 µM to 5.21 µM (2.8-fold).

Same assay, conditions: Homo sapiens, HeLa, 48 h, HeLa Luc-miR-21 reporter, 48-hour incubation; read-out: AC50

First: Cc1cccc(-n2nnc(-c3nc(-c4cccs4)no3)c2N)c1C [Compound 9]
Second: Cc1ccc(-n2nnc(-c3nc(-c4cccs4)no3)c2N)cc1C [Compound 14]
The AC50 of the first is 18-fold lower: 0.09 µM for the first, 1.65 µM for the second.

Compared with `Nc1c(-c2nc(-c3cccs3)no2)nnn1-c1cccc(F)c1` [Compound 10], `Cc1cccc(-n2nnc(-c3nc(-c4cccs4)no3)c2N)c1` [Compound 11] is 1.6-fold higher in AC50: 0.21 µM for the first, 0.33 µM for the second.

Compared with `Nc1c(-c2nc(-c3ccccc3Cl)no2)nnn1-c1ccccc1F` [Compound 12], `CCc1cccc(-n2nnc(-c3nc(-c4ccccc4Cl)no3)c2N)c1` [Compound 26] is 20-fold higher in AC50: 0.83 µM for the first, 16.5 µM for the second.

Compared with `COc1cccc(-n2nnc(-c3nc(-c4cccs4)no3)c2N)c1` [Compound 13], `COc1ccc(-n2nnc(-c3nc(-c4cccs4)no3)c2N)cc1` [Compound 17] is 1.8-fold lower in AC50: 1.04 µM for the first, 0.58 µM for the second.

`CCc1ccc(-n2nnc(-c3nc(-c4cccs4)no3)c2N)cc1` [Compound 15] and `CCc1cccc(-n2nnc(-c3nc(-c4cccs4)no3)c2N)c1` [Compound 19] are within 1.5-fold of each other in AC50: 1.17 µM for the first, 1.65 µM for the second.

First: COc1ccc(C)cc1-n1nnc(-c2nc(-c3ccccc3Cl)no2)c1N [Compound 16]
Second: Cc1ccc(C)c(-n2nnc(-c3nc(-c4ccc(Cl)cc4)no3)c2N)c1 [Compound 21]
The AC50 of the first is 3.5-fold higher: 4.65 µM for the first, 1.31 µM for the second.

`COc1ccc(-c2noc(-c3nnn(-c4cc(C)ccc4C)c3N)n2)cc1` [Compound 18] and `Cc1cccc(-n2nnc(-c3nc(-c4ccccc4)no3)c2N)c1C` [Compound 20] are within 1.5-fold of each other in AC50: 1.47 µM for the first, 1.85 µM for the second.

Going from `Nc1c(-c2nc(-c3cccs3)no2)nnn1-c1ccccc1Cl` [Compound 22] to `Nc1c(-c2nc(-c3cccs3)no2)nnn1-c1cccc(Cl)c1` [Compound 25], the AC50 rises from 0.09 µM to 4.14 µM (46-fold).

First: CCOc1ccccc1-n1nnc(-c2nc(-c3ccccc3)no2)c1N [Compound 23]
Second: COc1cccc(NC(=O)Cn2nnc(-c3nc(-c4ccccc4)no3)c2N)c1 [Compound 24]
The AC50 of the first is 2.8-fold lower: 3.69 µM for the first, 10.4 µM for the second.

Going from `Cc1ccc(-c2noc(-c3nnn(CC(=O)Nc4cccc(C(F)(F)F)c4)c3N)n2)cc1` [Compound 27] to `COc1nc(Nc2cccc(C(F)(F)F)c2)nc(OC)n1` [Compound 63], the AC50 rises from 0.74 µM to 14.7 µM (20-fold).

First: O=c1ccc2ccc(OCc3nnc(-c4ccccc4Br)o3)cc2o1 [Compound 28]
Second: CC(C)COc1ccc(C(=O)Nc2cc(-c3ccccc3)no2)cc1 [Compound 88]
The AC50 of the first is 2.5-fold higher: 11.7 µM for the first, 4.65 µM for the second.

First: Cc1ccc(CNc2nc(-c3ccco3)nn2S(C)(=O)=O)cc1 [Compound 29]
Second: CN(C)c1ccc(CNc2nc(-c3ccco3)nn2S(C)(=O)=O)cc1 [Compound 33]
The AC50 of the first is 13-fold lower: 0.58 µM for the first, 7.36 µM for the second.

First: Cc1ccc(CNc2nc3nc(C)c(Cl)c(C)n3n2)cc1 [Compound 30]
Second: COc1ccc(CNc2nc(-c3ccco3)nn2C(=O)CC(C)C)cc1 [Compound 32]
The AC50 of the first is 4.5-fold lower: 1.31 µM for the first, 5.85 µM for the second.

Compared with `CC(C)c1ccc(CNc2nc(-c3ccco3)nn2C(=O)c2ccc([N+](=O)[O-])cc2)cc1` [Compound 31], `COc1ccc(CNc2nc(-c3ccccc3)nn2C(=O)c2ccc([N+](=O)[O-])cc2)cc1` [Compound 38] is 7.1-fold higher in AC50: 2.07 µM for the first, 14.7 µM for the second.

Compared with `O=C(c1ccc([N+](=O)[O-])cc1)n1nc(-c2ccccc2)nc1NCc1ccccc1` [Compound 34], `O=C(c1cccc([N+](=O)[O-])c1)n1nc(-c2ccccc2)nc1NCc1ccccc1` [Compound 40] is 2-fold higher in AC50: 8.26 µM for the first, 16.5 µM for the second.

`COc1ccccc1C(=O)n1nc(-c2ccco2)nc1NCc1ccc(Cl)cc1` [Compound 35] and `O=C(c1ccc(Cl)cc1)n1nc(-c2ccccc2)nc1NCc1ccco1` [Compound 36] are the same in AC50: 14.7 µM for the first, 14.7 µM for the second.

`Cc1ccc(-c2nc(NCc3ccco3)n(S(C)(=O)=O)n2)cc1` [Compound 37] and `CCS(=O)(=O)n1nc(-c2ccccc2)nc1NCc1ccco1` [Compound 41] are within 1.5-fold of each other in AC50: 14.7 µM for the first, 18.5 µM for the second.

`COCC(=O)n1nc(-c2ccco2)nc1NCc1ccccc1Cl` [Compound 39] and `CC(=O)n1nc(-c2ccccc2)nc1NCc1cccs1` [Compound 42] are within 1.5-fold of each other in AC50: 16.5 µM for the first, 18.5 µM for the second.

`CC(=O)c1cnc2nc(SCc3ccccc3)nn2c1C` [Compound 43] and `Cc1cc(C)n2nc(SCCOc3ccccc3)nc2n1` [Compound 45] are within 1.5-fold of each other in AC50: 5.21 µM for the first, 7.36 µM for the second.

Going from `c1ccc(CSc2nnc3ccc(-c4cccs4)nn23)nc1` [Compound 44] to `Brc1ccc(CSc2nnc3ccccn23)cc1` [Compound 51], the AC50 rises from 7.36 µM to 16.5 µM (2.2-fold).

First: Fc1cccc(Cl)c1CSc1nnc2ccccn12 [Compound 46]
Second: Cc1ccccc1Nc1nc(N)nc(CSc2nnc3ccccn23)n1 [Compound 64]
The AC50 of the first is 1.6-fold lower: 10.4 µM for the first, 16.5 µM for the second.

`Cc1cc(C)n2nc(SCCOc3ccccc3F)nc2n1` [Compound 47] and `Cc1cc(C)n2c(SCc3ccccc3Cl)nnc2n1` [Compound 52] are within 1.5-fold of each other in AC50: 11.7 µM for the first, 16.5 µM for the second.

`COc1ccc(-c2nc(SCc3ccccc3)n(S(C)(=O)=O)n2)cc1` [Compound 48] and `O=C(CCc1ccccc1)n1nc(-c2ccco2)nc1SCc1ccccc1` [Compound 53] are within 1.5-fold of each other in AC50: 13.1 µM for the first, 18.5 µM for the second.

`Cc1ccccc1OCCSc1nnc(C)n1-c1ccccc1` [Compound 50] and `Cc1ccccc1Nc1nc(N)nc(CN(C)c2ccccc2)n1` [Compound 71] are within 1.5-fold of each other in AC50: 14.7 µM for the first, 18.5 µM for the second.

Compared with `Fc1ccccc1CSc1nnc(-c2cnccn2)n1Cc1ccco1` [Compound 54], `COc1cccc(OC)c1-c1nn2c(-c3ccco3)nnc2s1` [Compound 57] is 1.8-fold lower in AC50: 20.8 µM for the first, 11.7 µM for the second.

First: COc1ccc(-c2nn3c(C4CCCCC4)nnc3s2)cc1OC [Compound 56]
Second: COc1ccc(C(=O)Nc2nnc(C(C)C)s2)cc1OC [Compound 92]
The AC50 of the first is 2.2-fold lower: 3.29 µM for the first, 7.36 µM for the second.

`COCCNC(=O)C(c1cccnc1)N(Cc1ccccc1)C(=O)Cn1nnc2ccccc21` (stereo not shown) [Compound 58] and `CCn1nnc2cc(C(=O)Nc3ccc(OC)cc3)ccc21` [Compound 93] are within 1.5-fold of each other in AC50: 13.1 µM for the first, 11.7 µM for the second.

First: COc1nc(NCCO)nc(Nc2ccccc2F)n1 [Compound 59]
Second: COc1ccccc1Nc1nc(N)nc(CSc2nc(C)cc(C)n2)n1 [Compound 70]
The AC50 of the first is 4-fold lower: 4.65 µM for the first, 18.5 µM for the second.

`Cc1nnc(SCc2nc(N)nc(Nc3ccccc3)n2)s1` [Compound 60] and `Nc1nc(Nc2ccccc2)nc(C(F)(F)F)n1` [Compound 67] are within 1.5-fold of each other in AC50: 11.7 µM for the first, 16.5 µM for the second.

`Cc1ccc(Nc2ncnc(N)n2)cc1C` [Compound 61] and `Nc1ncnc(Nc2ccc(F)c(Cl)c2)n1` [Compound 65] are within 1.5-fold of each other in AC50: 13.1 µM for the first, 16.5 µM for the second.

`Nc1nc(CSCc2ccccc2)nc(N2CCOCC2)n1` [Compound 62] and `Cc1c(Cl)cccc1Nc1nc(N)nc(CSC(=S)N2CCOCC2)n1` [Compound 68] are within 1.5-fold of each other in AC50: 14.7 µM for the first, 18.5 µM for the second.

`COc1ccc(Nc2nc(N)nc(CSc3nccc(C)n3)n2)cc1` [Compound 66] and `Cc1ccccc1Nc1nc(N)nc(CCC(=O)c2ccc(O)cc2)n1` [Compound 69] are within 1.5-fold of each other in AC50: 16.5 µM for the first, 18.5 µM for the second.

Going from `CCc1ccc2oc(C(=O)Nc3nonc3CC)c(C)c2c1` [Compound 72] to `CCc1nonc1NC(=O)c1oc2ccc(C)cc2c1C` [Compound 73], the AC50 rises from 2.93 µM to 5.85 µM (2-fold).

First: CCc1nonc1NC(=O)c1oc2cc(C)c(C)cc2c1C [Compound 74]
Second: CCc1nonc1NC(=O)c1oc2ccccc2c1C [Compound 79]
The AC50 of the first is 2.5-fold lower: 5.85 µM for the first, 14.7 µM for the second.

`Cc1c(C(=O)N(C)C(C)c2ccccn2)oc2c(F)cccc12` (stereo not shown) [Compound 75] and `Cc1ccc2c(C)c(C(=O)N(C)C(C)c3ccncn3)oc2c1C` (stereo not shown) [Compound 77] are the same in AC50: 13.1 µM for the first, 13.1 µM for the second.

`COCC1CCN(C(=O)c2oc3c(F)cccc3c2C)C1` (stereo not shown) [Compound 76] and `Cc1cc(Cl)c2oc(C(=O)N[C@H]3CC[C@H](O)CC3)c(C)c2c1` [Compound 80] are within 1.5-fold of each other in AC50: 13.1 µM for the first, 16.5 µM for the second.

`Cc1cc(Cl)c2oc(C(=O)N(CCO)Cc3ccccc3)c(C)c2c1` [Compound 78] and `O=C(CCc1ccccc1)Nc1cccnc1Cl` [Compound 96] are within 1.5-fold of each other in AC50: 14.7 µM for the first, 13.1 µM for the second.

Compared with `Cc1cc(C)c2c(N)c(C(=O)Nc3ccccc3F)sc2n1` [Compound 81], `Cc1cc(C)c2c(N)c(C(=O)Nc3ccccc3C(F)(F)F)sc2n1` [Compound 83] is 5.6-fold higher in AC50: 1.47 µM for the first, 8.26 µM for the second.

First: Nc1c(C(=O)Nc2ccccc2Br)sc2nc(-c3cccs3)ccc12 [Compound 82]
Second: Nc1c(C(=O)Nc2ccc(Cl)cc2F)sc2nc(-c3cccs3)ccc12 [Compound 87]
The AC50 of the first is 2.2-fold lower: 7.36 µM for the first, 16.5 µM for the second.

`Nc1c(C(=O)Nc2cc(F)ccc2F)sc2nc(-c3cccc(O)c3)ccc12` [Compound 84] and `COCc1cc(C)nc2sc(C(=O)Nc3ccccc3O)c(N)c12` [Compound 86] are within 1.5-fold of each other in AC50: 11.7 µM for the first, 13.1 µM for the second.

Going from `Nc1c(C(=O)Nc2ccc(S(=O)(=O)N3CCCC3)cc2)sc2nc3cc4c(cc3cc12)CCC4` [Compound 85] to `O=C(Nc1ccc(-c2nc3ccccc3[nH]2)cc1)c1ccc2c(c1)OCO2` [Compound 91], the AC50 falls from 13.1 µM to 6.56 µM (2-fold).

Going from `COc1cccc(C(=O)NCCC2=CCCCC2)c1OC` [Compound 90] to `CC(=O)Nc1nc2c(C)cc(NC(=O)C3CCCCC3)cc2s1` [Compound 97], the AC50 rises from 5.85 µM to 14.7 µM (2.5-fold).

Going from `CC(C)C(=O)Nc1nc2c(s1)CC(C(C)(C)C)CC2` (stereo not shown) [Compound 94] to `CC(C)(C)C1CCc2nc(NC(=O)Cc3cn4ccsc4n3)sc2C1` (stereo not shown) [Compound 95], the AC50 rises from 2.07 µM to 8.26 µM (4-fold).
